Measurements published in US20100016598A1 (WYETH, priority 2008, published 2010).
pEC50: −log10 of the molar value.

How the values were obtained:
[1] = target: T1, alpha3 (ganglionic) nACh receptors (Homo sapiens, UniProt P30926+P32297); assay: calcium-monitoring FLIPR selectivity assay using the native SH-SY5Y cell line; assay type: cell-based; details: read-out: Alpha 3 EC50
T1 construct: using the native SH-SY5Y cell line; endogenous in cells; host or cells: SH-SY5Y
From the text: Functional FLIPR assays were developed in order to test the selectivity of compounds against the alpha1 (muscular) and alpha3 (ganglionic) nACh receptors and the structurally related 5-HT3 receptor. […] In order to test selectivity against the 5-HT3 receptor, a recombinant cell line was constructed expressing the human 5-HT3A receptor in HEK 293 cells and a calcium-monitoring FLIPR assay employed.

[2] = target: T2, alpha7 nicotinic acetylcholine receptor (Rattus norvegicus, UniProt Q05941); assay: functional FLIPR assay, alpha7 nAChR stably expressed in GH4C1 cells; assay type: cell-based; details: GH4C1 cell line expressing the alpha7 nAChR; concentration-response curves; read-out: Alpha 7 EC50
T2 construct: expressed in transfected cells
T2 sequence (Q05941 23-502): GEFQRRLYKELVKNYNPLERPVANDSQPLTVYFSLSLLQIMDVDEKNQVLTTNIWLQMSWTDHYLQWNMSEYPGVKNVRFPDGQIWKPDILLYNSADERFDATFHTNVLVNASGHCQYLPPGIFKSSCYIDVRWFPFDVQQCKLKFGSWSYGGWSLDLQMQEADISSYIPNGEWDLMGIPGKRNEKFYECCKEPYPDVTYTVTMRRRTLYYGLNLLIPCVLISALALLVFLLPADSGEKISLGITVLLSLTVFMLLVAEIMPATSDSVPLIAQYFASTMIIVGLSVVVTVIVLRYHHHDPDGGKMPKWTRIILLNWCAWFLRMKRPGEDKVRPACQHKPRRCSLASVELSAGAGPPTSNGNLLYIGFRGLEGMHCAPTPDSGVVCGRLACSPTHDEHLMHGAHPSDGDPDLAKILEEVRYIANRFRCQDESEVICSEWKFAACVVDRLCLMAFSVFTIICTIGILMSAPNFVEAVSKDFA
From the text: Rat GH4C1 cells were then transfected with the rat receptor, cloned and analyzed for functional alpha7 nicotinic receptor expression employing a FLIPR assay to measure changes in intracellular calcium concentrations.
The FLIPR system allows the measurements of real time Ca^2+-concentration changes in living cells using a Ca^2+ sensitive fluorescence dye (such as Fluo4). This instrument enables the screening for agonists and antagonists for alpha 7 nAChR channels stably expressed in GH4C1 cells.
GH4C1 cells stably transfected with rat-alpha7-nAChR (see above) were used. These cells are poorly adherent and therefore pretreatment of flasks and plates with poly-D-lysine was carried out. Cells are grown in 150 cm^2 T-flasks, filled with 30ml of medium at 37° C. and 5% CO2.
EC50 and IC50 values were calculated using the IDBS XLfit4.1 software package employing a sigmoidal concentration-response (variable slope) equation:
Certain compounds of the present disclosure were tested using the functional FLIPR primary screening assay employing the stable recombinant GH4C1 cell line expressing the alpha7 nAChR. Hits identified were validated further by generation of concentration-response curves.

T1 sequence (P32297 32-505): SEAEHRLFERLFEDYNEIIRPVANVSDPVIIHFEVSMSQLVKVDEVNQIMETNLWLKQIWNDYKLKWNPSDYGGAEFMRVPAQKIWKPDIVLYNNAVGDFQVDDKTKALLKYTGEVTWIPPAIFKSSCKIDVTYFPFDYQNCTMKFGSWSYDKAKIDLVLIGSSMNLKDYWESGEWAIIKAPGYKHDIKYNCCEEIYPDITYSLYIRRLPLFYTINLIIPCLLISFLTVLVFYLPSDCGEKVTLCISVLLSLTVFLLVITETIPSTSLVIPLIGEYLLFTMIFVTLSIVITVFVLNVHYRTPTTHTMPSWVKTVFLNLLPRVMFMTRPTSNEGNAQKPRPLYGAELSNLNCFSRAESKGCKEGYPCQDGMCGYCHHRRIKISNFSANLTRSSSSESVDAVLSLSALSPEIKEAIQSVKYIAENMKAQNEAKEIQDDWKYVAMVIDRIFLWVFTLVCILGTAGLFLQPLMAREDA
T1 sequence (P30926 22-498): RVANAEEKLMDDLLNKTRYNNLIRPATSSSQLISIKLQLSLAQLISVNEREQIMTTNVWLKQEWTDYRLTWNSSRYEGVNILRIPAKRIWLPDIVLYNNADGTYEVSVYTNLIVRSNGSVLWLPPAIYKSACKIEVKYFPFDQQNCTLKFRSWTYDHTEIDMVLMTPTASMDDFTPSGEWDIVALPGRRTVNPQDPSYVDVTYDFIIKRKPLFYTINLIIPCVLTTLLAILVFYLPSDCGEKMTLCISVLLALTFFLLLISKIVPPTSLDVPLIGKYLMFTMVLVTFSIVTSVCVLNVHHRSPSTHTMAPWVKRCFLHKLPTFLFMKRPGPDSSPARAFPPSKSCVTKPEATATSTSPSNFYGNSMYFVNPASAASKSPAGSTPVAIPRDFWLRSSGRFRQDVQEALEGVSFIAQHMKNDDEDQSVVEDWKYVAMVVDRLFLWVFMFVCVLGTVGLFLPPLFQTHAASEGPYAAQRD

Q: Which results are given for COc1ncccc1-c1ccc(NC(=O)NCCCCN2CCCCC2)cc1?
A: pEC50 [1]: 5.25; pEC50 [2]: 7.22
